In patent US4016158A, “Cephalosporin derivatives” (Roussel-UCLAF, priority 1971, dated 1977):
Values after ≈ are worked out from the molar mass of the structure shown. Where two headings read alike, the source gives them in different places.

Experiments:
[1] = system: Bac. Subt.; experiment: MIC, diffusion method in gelose medium at pH 7 (Table I); format: cell-based
Description: (§1) The antibiotic activity was determined by the diffusion method in a gelose medium at a pH of 7. The following Table expresses the minimum concentration of inhibition in mcg/ml (CMl) for the products against different microbial strains.

[2] = system: Staph. U.C. 1128 P(-); experiment: as above; format: cell-based; conditions: Staph. UC 1128, penicillin resistant, read-out: minimum concentration of inhibition
Description: as §1

[3] = system: Staph. aureus oxford U.C. 1061 P(+); experiment: as above; format: cell-based; conditions: Staphylococcus aureus
Description: as §1

[4] = system: Strept. Fecalis 5432; experiment: as above; format: cell-based
Description: as §1

[5] = system: Strept. hemoly. Todd Hewitt; experiment: as above; format: cell-based
Description: as §1

[6] = solubility; format: physicochemical
[7] = system: gram positive bacteria such as staphylococci and streptococci; experiment: antibacterial activity, statement; conditions: particularly penicillin resistant staphylococci
[8] = system: certain gram negative bacteria, particularly coliform bacteria; experiment: antibacterial activity, statement
[9] = system: Escher. Coli UC 1020; experiment: MIC, diffusion method in gelose medium at pH 7 (Table I); format: cell-based; conditions: Escherichia coli
Description: as §1

[10] = system: Escher. Coli UC 1261; experiment: as above; format: cell-based; conditions: Escherichia coli
Description: as §1

[11] = system: Staphylococcus aureus 4546; experiment: MIC (Table II); format: cell-based; conditions: read-out: minimum inhibition concentration
Description: as §1
(§2) Using the same procedure as in Table I, the minimum inhibition concentration in mcg/ml was determined against different microbial strains with L(-) cis 7-[D(-)-α-aminophenylacetamido]-3-isopropyl-3-cepheme-4-carboxylic acid (product A) of Example 9.

[12] = system: Staphylococcus aureus 889; experiment: MIC (Table II); format: cell-based; conditions: read-out: minimum inhibition concentration
Description: as §1, §2

[13] = system: Staphylococcus aureus 9373; experiment: MIC (Table II); format: cell-based; conditions: read-out: minimum inhibition concentration
Description: as §1, §2

[14] = system: Staphylococcus aureus 9482; experiment: MIC (Table II); format: cell-based; conditions: read-out: minimum inhibition concentration
Description: as §1, §2

[15] = system: Staphylococcus aureus 9729; experiment: MIC (Table II); format: cell-based; conditions: read-out: minimum inhibition concentration
Description: as §1, §2

[16] = system: Staphylococcus aureus A8P; experiment: MIC (Table II); format: cell-based; conditions: read-out: minimum inhibition concentration
Description: as §1, §2

[17] = system: Pseudomonas; experiment: MIC, diffusion method in gelose medium at pH 7 (Table I); format: cell-based; conditions: read-out: minimum concentration of inhibition
Description: as §1

[18] = Bac. Subt., pH 7, read-out: minimum concentration of inhibition
[19] = UC1061, Staph. aureus oxford UC 1061, penicillin sensitive, pH 7, read-out: minimum concentration of inhibition
[20] = Strept. Fecalis 5432, pH 7, read-out: minimum concentration of inhibition
[21] = Strept. hemoly. Todd Hewitt, pH 7, read-out: minimum concentration of inhibition
[22] = pH 7, read-out: minimum concentration of inhibition
[23] = UC1020, Escher. Coli UC 1020, pH 7, read-out: minimum concentration of inhibition
[24] = UC1261, Escher. Coli UC 1261, pH 7, read-out: minimum concentration of inhibition

SMILES | MIC [1, 18] | MIC [2] | MIC [3, 19] | MIC [4, 20] | MIC [5, 21] | solubility in ethanol [6] | solubility in ether [6] | solubility in water [6] | MIC [9, 23] | MIC [10, 24] | MIC [17] | other results
N[C@@H](C(=O)N[C@@H]1C(=O)N2C(C(=O)O)=C(C3CCCC3)CS[C@H]12)c1ccccc1 [Example 10, L(+) 6R, 7R 7-[R(-)-α-aminophenylacetamido]-3-cyclopentyl-3-cepheme-4-carboxylicacid] | 0.05 µg/mL (≈ 0.125 µM) | 1 µg/mL (≈ 2.49 µM) | 0.4 µg/mL (≈ 0.996 µM) | 20 µg/mL (≈ 49.8 µM) | 10 µg/mL (≈ 24.9 µM) | slightly soluble | insoluble | slightly soluble |  |  |  | activity against gram positive bacteria [7]: active; activity against certain gram negative bacteria [8]: active
O=C(Cc1ccc([N+](=O)[O-])cc1)NC1C(=O)N2C(C(=O)O)=C(C3CCCC3)CSC12 (stereo not drawn) [Example 11, DL cis 7-p-nitrophenylacetamido-3-cyclopentyl-3-cepheme-4-carboxylic acid] | 0.1 µg/mL (≈ 0.232 µM) | 0.4 µg/mL (≈ 0.927 µM) | 0.2 µg/mL (≈ 0.464 µM) | > 40 µg/mL | > 40 µg/mL | slightly soluble | insoluble | insoluble |  |  |  | 
O=C(Cc1cccs1)NC1C(=O)N2C(C(=O)O)=C(C3CCCC3)CSC12 (stereo not drawn) [Example 13, DL cis 7-(2'-thienyl)-acetamido-3-cyclopentyl-3-cepheme-4-carboxylic acid] | 1 µg/mL (≈ 2.55 µM) |  | 1 µg/mL (≈ 2.55 µM) | 20 µg/mL (≈ 51 µM) | > 40 µg/mL |  | insoluble | slightly soluble |  |  |  | 
CC1=C(C(=O)O)N2C(=O)[C@@H](NC(=O)[C@H](N)c3ccccc3)[C@H]2SC1 [Cephalexin, reference compound] |  | 10 µg/mL (≈ 28.8 µM) |  |  |  |  |  |  |  |  |  | MIC [1, 22]: 0.2 µg/mL (≈ 0.576 µM); MIC ([9]; UC1020, pH 7, read-out: minimum concentration of inhibition): 20 µg/mL (≈ 57.6 µM); MIC ([10]; UC1261, pH 7, read-out: minimum concentration of inhibition): 20 µg/mL (≈ 57.6 µM); MIC ([3]; UC1061, pH 7, read-out: minimum concentration of inhibition): 2 µg/mL (≈ 5.76 µM); MIC [4, 22]: 60 µg/mL (≈ 173 µM); MIC [5, 22]: 10 µg/mL (≈ 28.8 µM); MIC ([11]; Staphylococcus aureus, 4546, 24 h): 1 µg/mL (≈ 2.88 µM); MIC ([11]; Staphylococcus aureus, 4546, 48 h): 3 µg/mL (≈ 8.64 µM); MIC ([12]; Staphylococcus aureus, 889, 24 h): 5 µg/mL (≈ 14.4 µM); MIC ([12]; Staphylococcus aureus, 889, 48 h): 10 µg/mL (≈ 28.8 µM); MIC ([13]; Staphylococcus aureus, 9373, 24 h): 2 µg/mL (≈ 5.76 µM); MIC ([13]; Staphylococcus aureus, 9373, 48 h): 3 µg/mL (≈ 8.64 µM); MIC ([14]; Staphylococcus aureus, 9482, 24 h): 1 µg/mL (≈ 2.88 µM); MIC ([14]; Staphylococcus aureus, 9482, 48 h): 1 µg/mL (≈ 2.88 µM); MIC ([15]; Staphylococcus aureus, 9729, 24 h): 2 µg/mL (≈ 5.76 µM); MIC ([15]; Staphylococcus aureus, 9729, 48 h): 3 µg/mL (≈ 8.64 µM); MIC ([16]; 24 h): 2 µg/mL (≈ 5.76 µM); MIC ([16]; 48 h): 5 µg/mL (≈ 14.4 µM)
CC(C)C1=C(C(=O)O)N2C(=O)[C@@H](NC(=O)Cc3cccs3)[C@H]2SC1 (relative stereo) [Example 8, DL cis 7-(2'-thienyl)-acetamido-3-isopropyl-3-cepheme-4-carboxylic acid] | 0.4 µg/mL (≈ 1.09 µM) | 5 µg/mL (≈ 13.6 µM) | 2 µg/mL (≈ 5.46 µM) | > 40 µg/mL | 10 µg/mL (≈ 27.3 µM) | slightly soluble |  | insoluble | > 200 µg/mL | > 200 µg/mL | > 200 µg/mL | solubility in methanol ([6]; methanol): soluble
CC(C)C1=C(C(=O)O)N2C(=O)[C@@H](NC(=O)Cc3ccc([N+](=O)[O-])cc3)[C@H]2SC1 (relative stereo) [Example 6, DL cis 7-p-nitrophenylacetamido-3-isopropyl-3-cepheme-4-carboxylic acid] | 0.2 µg/mL (≈ 0.493 µM) | 2 µg/mL (≈ 4.93 µM) | 0.4 µg/mL (≈ 0.987 µM) | > 40 µg/mL | 5 µg/mL (≈ 12.3 µM) | slightly soluble |  | insoluble | > 200 µg/mL | > 200 µg/mL | > 200 µg/mL | 
CC(C)C1=C(C(=O)O)N2C(=O)[C@@H](NC(=O)Cc3ccc(N)cc3)[C@H]2SC1 (relative stereo) [Example 7, DL cis 7-p-aminophenylacetamido-3-isopropyl-3-cepheme-4-carboxylic acid] | 0.05 µg/mL (≈ 0.133 µM) |  | 2 µg/mL (≈ 5.33 µM) | > 40 µg/mL | 10 µg/mL (≈ 26.6 µM) | slightly soluble | insoluble | slightly soluble | > 200 µg/mL | > 200 µg/mL | > 200 µg/mL | solubility in chloroform ([6]; chloroform): slightly soluble
Nc1ccc(CC(=O)NC2C(=O)N3C(C(=O)O)=C(C4CCCC4)CSC23)cc1 (stereo not drawn) [Example 12, DL cis 7-p-aminophenylacetamido-3-cyclopentyl-3-cepheme-4-carboxylic acid] |  |  |  |  |  | soluble | insoluble | slightly soluble |  |  |  | 
